Values quoted from earlier work, collected in patent publication US8454993B2, “Controlled release pharmaceutical compositions of pregabalin” (Lupin Limited, priority 2007, dated 2013).

Settings: in water and both basic and acidic aqueous solutions

CC(C)C[C@H](CN)CC(=O)O [Pregabalin, (S)-(+)-3-(aminomethyl)-5-methylhexanoic acid]
solubility: freely soluble
